Format in all cases: cell-based, rat
The subject of assay [1] is JNK. The experiment in a line: Western blot, phospho-JNK in hypoxic RGC-5. The settings on record: agmatine 100 μM, BDNF 10 ng/mL. The procedure:
(§1) The RGC-5 cell line, which is a RGC line developed from post-natal Sprague-Dawley rats, was grown in modified Dulbecco's Modified Eagle's Medium (DMEM; Gibco) supplemented with 10% of heat inactivated fetal bovine serum (Gibco) and 100 U/mL of penicillin and 100 μg/mL of streptomycin (Gibco). The cells were passaged every 2 to 3 days, and the cultures incubated at 37° C. in 5% of CO2 and air. […] For all experiments, cells were used at an 80% confluence. Cultures were transferred into a closed hypoxic chamber (Form a Scientific Co.) in which oxygen level (5% of O2, 5% of CO2, 90% of N2) and temperature (37° C.) were controlled. […] The protein concentrations in the resultant supernatants were measured with the Bradford reagent, and equal amounts of protein (40 μg) were boiled in Laemmli sample buffer, followed by being resolved by 10 or 15% SDS-PAGE. The proteins were transferred to polyvinylidene fluoride membranes (Immobilon; Millipore, Billerica, Mass.) and then probed overnight with antibodies against JNK, ERK p44/42, p38, NF-κB p65, phospho-JNK, phospho-ERK p44/42, phospho-p38, phospho-NF-κB, (3-actin and histone 3 as indicated (diluted 1:1000). The immunoreactive bands were detected with horseradish peroxidase-conjugated secondary antibodies and visualized by enhanced chemiluminescence.
In general terms: A western blot detects proteins with antibodies after separation by electrophoresis.

The subject of assay [2] is NF-κB. The experiment in a line: Western blot, NF-κB in nuclear and cytosolic fraction of hypoxic RGC-5. Conditions: for increase in phospho-NF-κB, nuclear fraction / increase in total NF-κB expression, cytoplasmic fraction: hypoxia 1 hour; for total NF-κB and histone 3, nuclear fraction: hypoxic RGC-5. The procedure:
The RGC-5 cell line, which is a RGC line developed from post-natal Sprague-Dawley rats, was grown in modified Dulbecco's Modified Eagle's Medium (DMEM; Gibco) supplemented with 10% of heat inactivated fetal bovine serum (Gibco) and 100 U/mL of penicillin and 100 μg/mL of streptomycin (Gibco). The cells were passaged every 2 to 3 days, and the cultures incubated at 37° C. in 5% of CO2 and air. […] For all experiments, cells were used at an 80% confluence. Cultures were transferred into a closed hypoxic chamber (Form a Scientific Co.) in which oxygen level (5% of O2, 5% of CO2, 90% of N2) and temperature (37° C.) were controlled. After washing twice with deoxygenated serum-free DMEM, cells were maintained in the hypoxic chamber. Control cells were not exposed to hypoxia. Agmatine or BDNF were added to the culture medium at the start of injury as indicated. For fraction of cytosolic and nuclear proteins, cells were lysed with lysis buffer A (10 mM of HEPES (pH 7.4), 10 mM of KCl, 0.1 mM of EDTA, 0.1 mM of EGTA, 1 mM of DTT, 10 mM of Na3VO4, 50 mM of NaF, 1 mM of PMSF, 1 μg/mL of aprotinin, 1 μg/mL of leupeptin, 1 μg/mL of pepstatin) on ice for 15 minutes, and 10% of NP-40 was then added thereto. After vortexing for 10 seconds, lysates were centrifuged at 15,000 g at 4° C. for 1 minute. The supernatent was collected from the cytosolic fraction. The pellet was resuspended in lysis buffer C (20 mM of HEPES (pH 7.4), 400 mM of NaCl, 1 mM of EDTA, 1% of glycerol, 1 mM of DTT, 10 mM of Na3VO4, 50 mM of NaF, 1 mM of PMSF, 1 μg/mL of aprotinin, 1 μg/mL of leupeptin, 1 μg/mL of pepstatin) on ice for 30 minutes. Lysates were centrifuge at 15,000 g at 4° C. for 15 minutes. The supernatent was collected from the nuclear fraction. The protein concentrations in the resultant supernatants were measured with the Bradford reagent, and equal amounts of protein (40 μg) were boiled in Laemmli sample buffer, followed by being resolved by 10 or 15% SDS-PAGE. The proteins were transferred to polyvinylidene fluoride membranes (Immobilon; Millipore, Billerica, Mass.) and then probed overnight with antibodies against JNK, ERK p44/42, p38, NF-κB p65, phospho-JNK, phospho-ERK p44/42, phospho-p38, phospho-NF-κB, (3-actin and histone 3 as indicated (diluted 1:1000). The immunoreactive bands were detected with horseradish peroxidase-conjugated secondary antibodies and visualized by enhanced chemiluminescence.

Assay [3] deals with p38. The experiment in a line: Western blot, phospho-p38 in hypoxic RGC-5. The settings on record: agmatine 100 μM, BDNF 10 ng/mL. How it is done:
as §1

Assay [4] relates to RGC-5. The experiment in a line: Annexin-V assay (flow cytometry), hypoxia-induced apoptosis. The settings on record: agmatine 100 μM or BDNF 10 ng/ml. How it is done:
The RGC-5 cell line, which is a RGC line developed from post-natal Sprague-Dawley rats, was grown in modified Dulbecco's Modified Eagle's Medium (DMEM; Gibco) supplemented with 10% of heat inactivated fetal bovine serum (Gibco) and 100 U/mL of penicillin and 100 μg/mL of streptomycin (Gibco). The cells were passaged every 2 to 3 days, and the cultures incubated at 37° C. in 5% of CO2 and air. […] For all experiments, cells were used at an 80% confluence. Cultures were transferred into a closed hypoxic chamber (Form a Scientific Co.) in which oxygen level (5% of O2, 5% of CO2, 90% of N2) and temperature (37° C.) were controlled. After washing twice with deoxygenated serum-free DMEM, cells were maintained in the hypoxic chamber. Control cells were not exposed to hypoxia. Agmatine or BDNF were added to the culture medium at the start of injury as indicated. The percentage of cells actively undergoing apoptosis was determined by flow cytometry using the Annexin V-FITC Apoptosis Detection Kit (BD Biosciences, Cat no. 556547) according to the manufacturer's instructions. Briefly, cells were harvested and resuspended in binding buffer (10^6 cells/mL). 10^5 cells were mixed with 5 μL of annexin V-FITC and 5 μL of PI. After incubating at room temperature for 15 minutes in the dark, analysis was performed by flow cytometry.
In general terms: Flow cytometry measures light scatter and fluorescence of single cells or particles in a stream.

Regarding `N=C(N)NCCCCN` [agmatine], the “hypoxia-induced expression of phospho-JNKs” value in assay [1] is “significantly suppressed”. Besides, in assay [2], the “increase in phospho-NF-κB, nuclear fraction” value is “suppressed”; the “increase in total NF-κB expression, cytoplasmic fraction” value is given as “inhibited”; the “total NF-κB and histone 3, nuclear fraction” value is recorded as “no significant changes”. The “expression of phospho-p38” value in assay [3] is listed as “had no effect”. Also, the “proportion of apoptotic cells” value in assay [4] (hypoxia 12 hours) was “no significant difference”. Also, the “proportion of apoptotic cells” value in assay [4] (hypoxia 24 hours) is “significant decrease in apoptotic cells”.
As for “BDNF: recombinant human BDNF (R&D System), well-known protective neurotrophin for RGCs, used as comparator”, the “hypoxia-induced expression of phospho-JNKs” value in assay [1] was “not”. Further, in assay [2], the “increase in phospho-NF-κB, nuclear fraction” value was “not”; the “increase in total NF-κB expression, cytoplasmic fraction” value is “not”; the “total NF-κB and histone 3, nuclear fraction” value is “no significant changes”. Further, in assay [3], the “expression of phospho-p38” value is “only blocked the expression of phospho-p38 at 6 hours”. In addition, the “proportion of apoptotic cells” value in assay [4] (hypoxia 12 hours) is reported as “no significant difference”. Also, the “proportion of apoptotic cells” value in assay [4] (hypoxia 24 hours) is listed as “significant decrease in apoptotic cells”.

The record behind these values is patent US8084502B2, “Use of agmatine for protection of retinal ganglion cells” (priority 2007, dated 2011).
